In patent US7423157B2, “Substituted benzimidazoles and their use for inducing apoptosis” (Basilea Pharmaceutica AG, priority 2004, dated 2008):

How the values were obtained:
[1] = tested on: Jurkat; experiment: Hoechst 33342 nuclear staining, Jurkat; assay type: cell-based, human; settings: 48 h
Protocol: (§1) This assay is performed in 96 well tissue culture plates. Appropriate number of cells (adherent cells: 3-5*10^3, suspension cells: 8-10*10^3) are being seeded out in 80 μl complete medium. Adherent cells are incubated for 24 h for proper spreading out before addition of test compounds while suspension cells are immediately treated with test compounds after seeding out. The test compounds are added in 20 μl complete medium containing max 5% DMSO. The final compound concentrations in the assays are 10 μM, 3 μM, 1 μM and 0.3 μM, respectively. […] The assay plates are then further incubated for 30 minutes and subsequently analyzed with a standard inverted fluorescence microscope.
(§2) The readout allows the determination of the fraction of apoptotic nuclei as well as other morphological criteria specific for apoptosis as a function of the treatment. The following scores are used: 0 relating to no activity, 1 relating to weak activity comprising less than 50% of the cells and score 2 relating to strong activity comprising more than 50% of the cells.

[2] = tested on: Jily; experiment: Hoechst 33342 nuclear staining, Jily; assay type: cell-based; settings: 48 h
Protocol: as §1, §2

[3] = tested on: PBLs; experiment: Hoechst 33342 nuclear staining, PBLs; assay type: cell-based; design: key: 0 = no activity, 1 = weak (<50% of cells), 2 = strong (>50% of cells); settings: 48 h
Protocol: as §1, §2

[4] = tested on: HeLa; experiment: Hoechst 33342 nuclear staining, HeLa; assay type: cell-based, human; settings: 48 h
Protocol: as §1, §2

[5] = tested on: H460; experiment: Hoechst 33342 nuclear staining, H460; assay type: cell-based, human; settings: H460, 48 h
Protocol: as §1, §2

[6] = tested on: MRC5; experiment: Hoechst 33342 nuclear staining, MRC5; assay type: cell-based; design: key: 0 = no activity, 1 = weak (<50% of cells), 2 = strong (>50% of cells); settings: MRC5, 48 h
Protocol: as §1, §2

[7] = tested on: Jurkat; experiment: MTS proliferation assay, Jurkat; assay type: cell-based, human; settings: 72 h incubation
Protocol: (§3) The assay is performed in 96 well tissue culture plates. The cells (range: 1.5*10^3-10^4) are seeded out in 80 μl complete medium 24 h prior to compound treatment. The test compounds are added in 20 μl complete medium containing max 5% DMSO. The final compound concentrations in the assays are 10 μM, 3 μM, 1 μM and 0.3 μM, respectively. The assay plates are incubated for 72 h at culture conditions. The MTS reagent is prepared according to the manufacturer's protocol (Promega G1111). 20 μl MTS reagent are added to each well, the assay plates are quickly spun and incubated for another 3 h at culture conditions. Subsequently, the plates are shortly shaked and absorption measured with a microplate-reader at 492 nm.

[8] = tested on: HeLa; experiment: MTS proliferation assay, HeLa; assay type: cell-based, human; settings: 72 h incubation
Protocol: as §3

Row | SMILES | Hoechst 33342 nuclear staining score ([1]; conc. 0.3 (μM)) | Hoechst 33342 nuclear staining score ([1]; conc. 1 (μM)) | Hoechst 33342 nuclear staining score ([1]; conc. 3 (μM)) | Hoechst 33342 nuclear staining score ([1]; conc. 10 (μM)) | Hoechst 33342 nuclear staining score ([2]; conc. 0.3 (μM)) | Hoechst 33342 nuclear staining score ([2]; conc. 1 (μM)) | Hoechst 33342 nuclear staining score ([2]; conc. 3 (μM)) | Hoechst 33342 nuclear staining score ([2]; conc. 10 (μM)) | Hoechst 33342 nuclear staining score ([3]; conc. 0.3 (μM)) | Hoechst 33342 nuclear staining score ([3]; conc. 1 (μM)) | Hoechst 33342 nuclear staining score ([3]; conc. 3 (μM)) | Hoechst 33342 nuclear staining score ([3]; conc. 10 (μM)) | Hoechst 33342 nuclear staining score ([4]; conc. 0.3 (μM)) | Hoechst 33342 nuclear staining score ([4]; conc. 1 (μM)) | Hoechst 33342 nuclear staining score ([4]; conc. 3 (μM)) | Hoechst 33342 nuclear staining score ([4]; conc. 10 (μM)) | Hoechst 33342 nuclear staining score ([5]; conc. 0.3 (μM)) | Hoechst 33342 nuclear staining score ([5]; conc. 1 (μM)) | Hoechst 33342 nuclear staining score ([5]; conc. 3 (μM)) | Hoechst 33342 nuclear staining score ([5]; conc. 10 (μM)) | also measured
1 | Nc1ccc(C(=O)Cn2c(-n3ncnc3N)nc3ccccc32)cn1 [Example 14] | 2 (score 2 relating to strong activity comprising more than 50% of the cells) | 2 (score 2 relating to strong activity comprising more than 50% of the cells) | 2 (score 2 relating to strong activity comprising more than 50% of the cells) | 2 (score 2 relating to strong activity comprising more than 50% of the cells) | 2 (score 2 relating to strong activity comprising more than 50% of the cells) | 2 (score 2 relating to strong activity comprising more than 50% of the cells) | 2 (score 2 relating to strong activity comprising more than 50% of the cells) | 2 (score 2 relating to strong activity comprising more than 50% of the cells) | 0 | 0 | 0 | 0 | 2 (score 2 relating to strong activity comprising more than 50% of the cells) | 2 (score 2 relating to strong activity comprising more than 50% of the cells) | 2 (score 2 relating to strong activity comprising more than 50% of the cells) | 2 (score 2 relating to strong activity comprising more than 50% of the cells) | 2 (score 2 relating to strong activity comprising more than 50% of the cells) | 2 (score 2 relating to strong activity comprising more than 50% of the cells) | 2 (score 2 relating to strong activity comprising more than 50% of the cells) | 2 (score 2 relating to strong activity comprising more than 50% of the cells) | Hoechst 33342 nuclear staining score ([6]; conc. 0.3 (μM)): 1 (1 relating to weak activity comprising less than 50% of the cells); Hoechst 33342 nuclear staining score ([6]; conc. 1 (μM)): 1 (1 relating to weak activity comprising less than 50% of the cells); Hoechst 33342 nuclear staining score ([6]; conc. 3 (μM)): 1 (1 relating to weak activity comprising less than 50% of the cells); Hoechst 33342 nuclear staining score ([6]; conc. 10 (μM)): 1 (1 relating to weak activity comprising less than 50% of the cells); IC50 [7]: < 100 nM; IC50 [8]: 100 to 1000 nM
2 | CS(=O)(=O)O.Nc1ccc(C(=O)Cn2c(-n3ncnc3N)nc3ccccc32)cn1 [Example 15] | 2 (score 2 relating to strong activity comprising more than 50% of the cells) | 2 (score 2 relating to strong activity comprising more than 50% of the cells) | 2 (score 2 relating to strong activity comprising more than 50% of the cells) | 2 (score 2 relating to strong activity comprising more than 50% of the cells) | 2 (score 2 relating to strong activity comprising more than 50% of the cells) | 2 (score 2 relating to strong activity comprising more than 50% of the cells) | 2 (score 2 relating to strong activity comprising more than 50% of the cells) | 2 (score 2 relating to strong activity comprising more than 50% of the cells) | 0 | 0 | 0 | 0 | 2 (score 2 relating to strong activity comprising more than 50% of the cells) | 2 (score 2 relating to strong activity comprising more than 50% of the cells) | 2 (score 2 relating to strong activity comprising more than 50% of the cells) | 2 (score 2 relating to strong activity comprising more than 50% of the cells) | 2 (score 2 relating to strong activity comprising more than 50% of the cells) | 2 (score 2 relating to strong activity comprising more than 50% of the cells) | 2 (score 2 relating to strong activity comprising more than 50% of the cells) | 2 (score 2 relating to strong activity comprising more than 50% of the cells) | Hoechst 33342 nuclear staining score ([6]; conc. 0.3 (μM)): 1 (1 relating to weak activity comprising less than 50% of the cells); Hoechst 33342 nuclear staining score ([6]; conc. 1 (μM)): 1 (1 relating to weak activity comprising less than 50% of the cells); Hoechst 33342 nuclear staining score ([6]; conc. 3 (μM)): 1 (1 relating to weak activity comprising less than 50% of the cells); Hoechst 33342 nuclear staining score ([6]; conc. 10 (μM)): 1 (1 relating to weak activity comprising less than 50% of the cells)
3 | COc1ccc(C(=O)Cn2c(-n3ccc(N)n3)nc3ccccc32)cc1 [Example 2, 5-Amino-2-(1-[4-methoxyphenylcarbonylmethyl]benzimidazol-2-yl)-pyrazole] | 0 | 0 | 2 (score 2 relating to strong activity comprising more than 50% of the cells) | 2 (score 2 relating to strong activity comprising more than 50% of the cells) | 0 | 2 (score 2 relating to strong activity comprising more than 50% of the cells) | 2 (score 2 relating to strong activity comprising more than 50% of the cells) | 2 (score 2 relating to strong activity comprising more than 50% of the cells) | 0 | 0 | 0 | 2 (score 2 relating to strong activity comprising more than 50% of the cells) | 0 | 0 | 2 (score 2 relating to strong activity comprising more than 50% of the cells) | 2 (score 2 relating to strong activity comprising more than 50% of the cells) | 0 | 0 | 2 (score 2 relating to strong activity comprising more than 50% of the cells) | 2 (score 2 relating to strong activity comprising more than 50% of the cells) | Hoechst 33342 nuclear staining score ([6]; conc. 0.3 (μM)): 0; Hoechst 33342 nuclear staining score ([6]; conc. 1 (μM)): 0; Hoechst 33342 nuclear staining score ([6]; conc. 3 (μM)): 0; Hoechst 33342 nuclear staining score ([6]; conc. 10 (μM)): 0
